Test results from US12187702B2, “Sulfonamideurea compounds” (Inflazome Limited, priority 2018, dated 2025).
Counter-ions that a name gives are not always drawn.

Columns and labels:
[1] = target: T1, NLRP3 (Homo sapiens, UniProt Q96P20); test: THP-1 cells pyroptosis assay (LPS + nigericin, resazurin read-out); type: cell-based; design: Seed THP-1 cells (25,000 cells/well) containing 1.0 μg/ml LPS; host or cells: THP-1 cells
Outline: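 THP-1 cells (25,000/well) primed with 1 μg/ml LPS in serum-free RPMI, treated 3 h with compound (8-point half-log series, 10 μM top, 0.1% DMSO), then 5 μM nigericin for 1 h at 37 °C. Viability read by 100 μM resazurin fluorescence after 1-2 h; IC50 from 4-parameter fit.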

[2] = target: T1, NLRP3; test: Human whole blood IL-1β release assay (LPS + nigericin, AlphaLisa); type: cell-based; design: Plate out 80 μl of whole blood containing 1 μg/ml of LPS; from tissue; host or cells: human whole blood from healthy donors
Experimental: For systemic delivery, the ability to inhibit NLRP3 when the compounds are present within the bloodstream is of great importance. For this reason, the NLRP3 inhibitory activity of a number of compounds in human whole blood was investigated in accordance with the following protocol.
Human whole blood in Li-heparin tubes was obtained from healthy donors from a volunteer donor panel. • 1. Plate out 80 μl of whole blood containing 1 μg/ml of LPS in 96-well, clear bottom cell culture plate (Corning #3585) • 2. Add 10 μl compound (8 points half-log dilution with 10 μM top dose) or vehicle (DMSO 0.1% FAC) to the appropriate wells • 3. Incubate for 3 hrs at 37° C., 5% CO2 • 4. Add 10 μl nigericin (Sigma #N7143) (10 μM FAC) to all wells • 5. Incubate for 1 hr at 37° C., 5% CO2 • 6. At the end of the incubation period, spin plates at 300×g for 5 mins to pellet cells and remove 20 μl of supernatant and add to 96-well v-bottom plates for IL-1β analysis (note: these plates containing the supernatants can be stored at −80° C. to be analysed at a later date) • 7. IL-1β was measured according to the manufacturer protocol (Perkin Elmer-AlphaLisa IL-1 Kit AL220F-5000) • 8. IC50 data is fitted to a non-linear regression equation (log inhibitor vs response-variable slope 4-parameters)

[3] = THP-1 cells, 1 μg/ml LPS, 5 μM nigericin, NLRP3 inhibitory activity, read-out: THP IC50
[4] = human whole blood, 1 μg/ml LPS, 10 μM nigericin, IL-1β release, read-out: HWB IC50

T1 sequence (Q96P20 whole entry): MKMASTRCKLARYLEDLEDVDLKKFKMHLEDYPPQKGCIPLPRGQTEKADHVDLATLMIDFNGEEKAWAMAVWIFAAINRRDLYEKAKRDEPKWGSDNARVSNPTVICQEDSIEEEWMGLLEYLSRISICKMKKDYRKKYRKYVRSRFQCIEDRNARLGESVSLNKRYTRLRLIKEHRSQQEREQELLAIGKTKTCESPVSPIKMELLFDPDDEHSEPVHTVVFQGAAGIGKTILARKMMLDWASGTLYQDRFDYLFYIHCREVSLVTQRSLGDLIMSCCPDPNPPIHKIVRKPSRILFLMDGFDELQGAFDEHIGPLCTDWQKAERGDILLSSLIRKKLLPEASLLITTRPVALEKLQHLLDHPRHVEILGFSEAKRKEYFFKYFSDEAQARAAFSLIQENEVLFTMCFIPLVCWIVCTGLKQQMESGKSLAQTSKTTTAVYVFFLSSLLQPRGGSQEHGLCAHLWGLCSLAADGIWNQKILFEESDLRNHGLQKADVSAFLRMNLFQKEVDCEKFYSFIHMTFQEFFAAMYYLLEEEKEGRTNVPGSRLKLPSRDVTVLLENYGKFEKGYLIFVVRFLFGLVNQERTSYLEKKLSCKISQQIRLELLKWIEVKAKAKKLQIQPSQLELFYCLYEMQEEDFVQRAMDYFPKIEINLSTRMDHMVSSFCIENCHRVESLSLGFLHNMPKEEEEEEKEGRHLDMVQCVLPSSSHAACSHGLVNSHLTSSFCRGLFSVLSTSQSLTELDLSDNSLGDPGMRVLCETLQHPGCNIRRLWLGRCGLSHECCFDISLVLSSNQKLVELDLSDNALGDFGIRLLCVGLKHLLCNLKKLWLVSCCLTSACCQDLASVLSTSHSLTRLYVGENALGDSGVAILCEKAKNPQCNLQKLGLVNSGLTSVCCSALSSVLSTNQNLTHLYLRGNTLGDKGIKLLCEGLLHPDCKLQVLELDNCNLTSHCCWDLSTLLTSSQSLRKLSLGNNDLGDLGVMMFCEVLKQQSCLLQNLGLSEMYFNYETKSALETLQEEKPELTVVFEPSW

Row | Compound | IC50 [1, 3] | IC50 [2, 4] | IC50 [1] | IC50 [2]
1 | CC(C)N(CCN(C)C)S(=O)(=O)NC(=O)Nc1c2c(cc3c1CCC3)CCC2 [Example 83, 3-(N-(2-(Dimethylamino)ethyl)-N-isopropylsulfamoyl)-1-(1,2,3,5,6,7-hexahydro-s-indacen-4-yl)urea, potassium salt] | < 1000 nM | < 5000 nM |  | 
2 | CN1CC(CN(C)S(=O)(=O)NC(=O)Nc2c3c(cc4c2CCC4)CCC3)C1 [Example 84, 3-(N-Methyl-N-((1-methylazetidin-3-yl)methyl)sulfamoyl)-1-(1,2,3,5,6,7-hexahydro-s-indacen-4-yl)urea, potassium salt] | < 500 nM | < 1000 nM |  | 
3 | CCN1CC2CN(S(=O)(=O)NC(=O)Nc3c4c(cc5c3CCC5)CCC4)CC21 (stereo not shown) [Example 85, 6-Ethyl-N-((1,2,3,5,6,7-hexahydro-s-indacen-4-yl)carbamoyl)-3,6-diazabicyclo[3.2.0]heptane-3-sulfonamide] | < 500 nM | < 500 nM |  | 
4 | CN1CC[C@H](NS(=O)(=O)NC(=O)Nc2c3c(cc4c2CCC4)CCC3)C1 [Example 88, 3-((S)—N-(1-Methylpyrrolidin-3-yl)sulfamoyl)-1-(1,2,3,5,6,7-hexahydro-s-indacen-4-yl)urea, potassium salt] | < 1000 nM | < 500 nM |  | 
5 | CN1CC[C@@H](NS(=O)(=O)NC(=O)Nc2c3c(cc4c2CCC4)CCC3)C1 [Example 89, 3-((R)—N-(1-Methylpyrrolidin-3-yl)sulfamoyl)-1-(1,2,3,5,6,7-hexahydro-s-indacen-4-yl)urea, potassium salt] | < 500 nM | < 500 nM |  | 
6 | CN1CCCN(S(=O)(=O)NC(=O)Nc2c3c(cc4c2CCC4)CCC3)CC1 [Example 90, N-((1,2,3,5,6,7-Hexahydro-s-indacen-4-yl)carbamoyl)-4-methyl-1,4-diazepane-1-sulfonamide, potassium salt] | < 1000 nM | < 500 nM |  | 
7 | CN1C[C@@H]2CN(S(=O)(=O)NC(=O)Nc3c4c(cc5c3CCC5)CCC4)C[C@@H]21 [Example 93, (1R,5R)—N-((1,2,3,5,6,7-Hexahydro-s-indacen-4-yl)carbamoyl)-6-methyl-3,6-diazabicyclo[3.2.0]heptane-3-sulfonamide, potassium salt] | < 500 nM | < 500 nM |  | 
8 | CN1CC2CN(S(=O)(=O)NC(=O)Nc3c4c(cc5c3CCC5)CCC4)C2C1 (stereo not shown) [Example 94, N-((1,2,3,5,6,7-Hexahydro-s-indacen-4-yl)carbamoyl)-3-methyl-3,6-diazabicyclo[3.2.0]heptane-6-sulfonamide, potassium salt] | < 500 nM | < 1000 nM |  | 
9 | CN1CCC[C@@H]1CN(C)S(=O)(=O)NC(=O)Nc1c2c(cc3c1CCC3)CCC2 [Example 95, 3-((R)—N-Methyl-N-((1-methylpyrrolidin-2-yl)methyl)sulfamoyl)-1-(1,2,3,5,6,7-hexahydro-s-indacen-4-yl)urea, potassium salt] | < 500 nM | < 500 nM |  | 
10 | CN1CCC2CCN(S(=O)(=O)NC(=O)Nc3c4c(cc5c3CCC5)CCC4)CC21 (stereo not shown) [Example 98, N-((1,2,3,5,6,7-Hexahydro-s-indacen-4-yl)carbamoyl)-1-methyloctahydro-6H-pyrrolo[2,3-c]pyridine-6-sulfonamide] | < 5000 nM | < 5000 nM |  | 
11 | CN1CCC[C@@H]1CN(C)S(=O)(=O)NC(=O)Nc1c2c(cc3c1CCC3)C=CC2 [Example 112, (R)—(N-Methyl-N-((1-methylpyrrolidin-2-yl)methyl)sulfamoyl)((1,2,3,5-tetrahydro-s-indacen-4-yl)carbamoyl)amide, potassium salt] | < 1000 nM | < 5000 nM |  | 
12 | Cc1cc2c(c(NC(=O)NS(=O)(=O)N(C)C)c1-c1ccnc(OC3CCN(C)CC3)c1)CCC2 [Example 113, N-((6-Methyl-5-(2-((1-methylpiperidin-4-yl)oxy)pyridin-4-yl)-2,3-dihydro-1H-inden-4-yl)carbamoyl)N,N-dimethylsulfamide] |  |  | < 500 nM | < 500 nM
13 | CN1CCC[C@H]1CN(C)S(=O)(=O)NC(=O)Nc1c2c(cc3c1CCC3)CCC2 [Example 115, 3-((S)—N-Methyl-N-((-1-methylpyrrolidin-2-yl)methyl)sulfamoyl)-1-(1,2,3,5,6,7-hexahydro-s-indacen-4-yl)urea, sodium salt] | < 500 nM | < 1000 nM |  | 

Second part, led by results:

Row | IC50 [1, 3] | IC50 [2, 4] | Compound | IC50 [1] | IC50 [2]
14 | < 500 nM | < 500 nM | CN1CC2CN(S(=O)(=O)NC(=O)Nc3c4c(cc5c3CCC5)CCC4)CC21 (stereo not shown) [Example 86, N-((1,2,3,5,6,7-Hexahydro-s-indacen-4-yl)carbamoyl)-6-methyl-3,6-diazabicyclo[3.2.0]heptane-3-sulfonamide] |  | 
15 | < 500 nM | < 5000 nM | CC(C)N1CC2CN(S(=O)(=O)NC(=O)Nc3c4c(cc5c3CCC5)CCC4)CC21 (stereo not shown) [Example 87, N-((1,2,3,5,6,7-Hexahydro-s-indacen-4-yl)carbamoyl)-6-isopropyl-3,6-diazabicyclo[3.2.0]heptane-3-sulfonamide, potassium salt] |  | 
16 | < 1000 nM | < 5000 nM | CN1CC2(CCN2S(=O)(=O)NC(=O)Nc2c3c(cc4c2CCC4)CCC3)C1 [Example 91, N-((1,2,3,5,6,7-Hexahydro-s-indacen-4-yl)carbamoyl)-6-methyl-1,6-diazaspiro[3.3]heptane-1-sulfonamide, potassium salt] |  | 
17 | < 500 nM | < 500 nM | CN1C[C@H]2CN(S(=O)(=O)NC(=O)Nc3c4c(cc5c3CCC5)CCC4)C[C@H]21 [Example 92, (1S,5S)—N-((1,2,3,5,6,7-Hexahydro-s-indacen-4-yl)carbamoyl)-6-methyl-3,6-diazabicyclo[3.2.0]heptane-3-sulfonamide, potassium salt] |  | 
18 | < 500 nM | < 500 nM | CN1CCCC2CN(S(=O)(=O)NC(=O)Nc3c4c(cc5c3CCC5)CCC4)CC21 (stereo not shown) [Example 97, N-((1,2,3,5,6,7-Hexahydro-s-indacen-4-yl)carbamoyl)-1-methyloctahydro-6H-pyrrolo[3,4-b]pyridine-6-sulfonamide] |  | 
19 | < 500 nM | < 500 nM | CC(C)c1cc(F)cc(-c2ccncc2)c1NC(=O)NS(=O)(=O)N(C)C1CCN(C)C1 (stereo not shown) [Example 108] |  | 
20 | < 500 nM | < 1000 nM | COc1cc(-c2c(C)cc3c(c2NC(=O)NS(=O)(=O)N(C)C)CCC3)ccn1 [Example 114, N-((5-(2-Methoxypyridin-4-yl)-6-methyl-2,3-dihydro-1H-inden-4-yl)carbamoyl)(N,N-dimethylsulfamoyl)amide] |  | 
